Measurements from patent US20250339404A1, “COMBINATION THERAPY USING A CD47-SIRP alpha BLOCKING AGENT AND AZACITIDINE” (Aurigene Oncology Limited, priority 2024, published 2025).
Entries after “also recorded” stand apart in the source; their conditions may differ. Structures can show the parent of a compound that is named as a salt.

How the values were obtained:
[1] = Phase I/IIa open label dose-escalation safety study in subjects with relapsed advanced malignancies; format: in vivo, human; settings: for Grade 3 or 4 toxicities / adverse events: correlated with the Test Product
Excerpt: Study objective: To evaluate the overall safety profile of the compound of formula (I) in human subjects with relapsed advanced malignancies.
The following table summarizes the (final) study protocol.

HL-60 cells = test: Phagocytosis of HL-60 cells by human macrophages; format: cell-based
Experimental: The objective of this study was to determine the effect of Calcium salt of compound of formula (I) and azacitidine mediated induction of phagocytosis of HL-60 cells by human macrophages. Different doses of Calcium salt of compound of formula (I) were tested to determine increase in phagocytosis of HL-60 cells (with or without azacitidine treatment) by macrophages isolated from healthy human volunteers.
Preparation of test compound: 20 mM stock concentration of Calcium salt of compound of formula (I) was prepared. The stock was further diluted to get intermediate and final concentrations. The final assay volume was 200 μL. Medium used for dilution is RPMI media. Four concentrations of Calcium salt of compound of formula (I) ranging from 10 μM to 0.3 μM were used in the assay.
Preparation of macrophage culture media: 5 mL of FBS and 10 μL of recombinant human M CSF (100 μg/mL stock) was added to 45 mL of RPMI to prepare macrophage culture media as and when required.
Preparation of HL-60 cell culture media: 10 mL of FBS was added to 40 mL of IMDM media to prepare HL-60 cell culture media.
Preparation of working stock of azacitidine: A 20 mM stock of azacitidine prepared by adding 172.1 μL of DMSO in 0.84 mg of azacitidine. 4.5 μL of 20 mM stock of azacitidine was added to 25.5 μL of DMSO to prepare 3 mM azacitidine working stock solution. This is 1000× of the desired final treatment concentration of 3 μM.
Preparation of working stock of Mouse IgG1 Kappa isotype control: Molarity of mouse IgG1 kappa isotype control antibody was calculated using online molarity calculator (https://www.graphpad.com/quickcalcs/Molarityform.cfm). Formula weight of antibody was 150 KDa. Molarity of isotype control antibody stock was 6.6667 μM. 3 μL of isotype control antibody stock solution was added to 197 μL RPMI media to prepare 100 nM of working stock solution. This is 10× stock of the required conc of isotype control. Preparation of working stock of anti-human CD47 antibody Molarity of anti-human CD47 antibody was calculated using online molarity calculator (https://www.graphpad.com/quickcalcs/Molarityform.cfm). Formula weight of anti-Human CD47 antibody was 150 KDa. Molarity of anti-human CD47 antibody stock was 6.6667 μM. This stock of anti-human CD47 antibody was further diluted to get intermediate and final concentrations as described below. 3 μL of anti-human CD47 antibody stock solution was added to 197 μL RPMI media to prepare 100 nM of working stock solution (10×).
Preparation of test system: 90 mL whole blood from healthy volunteer was collected in a Na-Heparin vacutainer and stored at room temperature until use. PBMCs isolated from blood were used for isolating monocytes and to differentiate them into macrophages for the phagocytosis assay.
90 mL blood was collected from healthy volunteer in NA-Heparin vacutainer. PBMCs were isolated and were resuspended in 50 mL serum free RPMI 1640 media. For isolation of monocytes, 10 mL of PBMC cell suspension was seeded in each T75 culture flask (total 5 flasks) and were cultured at 37 degree for 2 hours. Monocytes were attached to culture flask by adherence method. Media from these flasks was discarded and attached monocytes were washed once with prewarmed PBS. Monocytes were further cultured in 10 mL of macrophage culture media and were differentiated to macrophages for 10 days. Media from each flask was changed every alternate day or after every 2 days with fresh macrophage culture media.
A vial of HL-60 cell stock was taken from liquid nitrogen. Cells were thawed in a water bath at 37° C. till the last crystal is thawed. Cells were transferred to 50 mL of culture media in a falcon tube and centrifuged at 800 rpm for 8 minutes. Cells were further cultured in 20 mL of HL-60 cell culture media in T75 flasks at 37° C. at 5% CO2 for 24 hrs. After 24 hrs, the cells were centrifuged at 800 rpm for 5 mins. The cells were cultured in 25 mL of complete media at 37° C. and 5% CO2 for 2 more days. […]

[2] = tested on: Chemokines (MCP-3, MCP-1, MIP-1α & MIP-1β) and Cytokines (IL-12p40, IL-1A, IL-8, TNFα & IL-6); test: Pharmacodynamic biomarkers in the Phase I/IIa study; format: in vivo, human; settings: all cohorts, as a result of treatment
Excerpt: Chemokines are known for their role in recruitment of macrophages to sites of infection, damage, or tumors for the purpose of phagocytosis and healing. An upregulation of chemokines followed by administration of the compound of formula (I) is indicative of the CD-47 inhibition mediated enhanced phagocytosis. Disruption of the IL-6-STAT3 axis is known to reduce the ability of tumor cells to escape phagocytosis (Jing Chen et al. Oncoimmunology 2019, VOL. 8, NO. 11, e1652540). A drop in IL-6 level is also indicative of macrophage activation.

[3] = 0.3 μM, DMSO treated HL-60 cells
[4] = 10 μM, DMSO treated HL-60 cells, normalized to 10 nM anti-human CD47
[5] = all subjects, across dose levels 25-400 mg BID oral
[6] = Azacitidine 3 μM alone, HL-60 cells treated 72 hrs

N=C(N)NCCC[C@H](NC(=O)N1CCCC1C(=O)O)c1nc([C@@H](N)CCC(=O)O)no1 (stereo partly shown) [Calcium salt of compound of formula (I)]
Grade 3 or 4 toxicities / adverse events ([1]; all cohorts): No Grade 3 or 4 toxicities | causality assessment of the serious adverse events ([1]; by principal investigators and study sponsor): Not Related | serious adverse events reported ([1]; one in cohort 2 (50 mg BID), one in cohort 3 (100 mg BID)): Two serious adverse events were reported | % Normalized phagocytosis Replicate 1 (HL-60 cells; [3]): −1.92% | % Normalized phagocytosis Replicate 2 (HL-60 cells; [3]): −10.34% | % Normalized phagocytosis Replicate 1 (HL-60 cells; 1 μM, DMSO treated HL-60 cells): 19.54% | % Normalized phagocytosis Replicate 2 (HL-60 cells; 1 μM, DMSO treated HL-60 cells): 4.98% | % Normalized phagocytosis Replicate 1 (HL-60 cells; 3 μM, DMSO treated HL-60 cells): −10.34% | % Normalized phagocytosis Replicate 2 (HL-60 cells; 3 μM, DMSO treated HL-60 cells): −14.94% | increase in phagocytosis of HL-60 cells (HL-60 cells; 10 μM alone): 54.79% | % Normalized phagocytosis Replicate 1 (HL-60 cells; [4]): 62.35% | % Normalized phagocytosis Replicate 2 (HL-60 cells; [4]): 47.13%

N=C(N)NCCC[C@H](NC(=O)N1CCC[C@@H]1C(=O)O)c1nc([C@@H](N)CCC(=O)O)no1 [Compound of formula (I)]
severity of reported non-serious adverse events ([1]; all cohorts, NCI CTCAE v 5.0): mild to moderate | Grade 3 or 4 toxicities / adverse events ([1]; all cohorts): no grade 3 or grade 4 adverse events | Grade 3 or 4 toxicities / adverse events ([1]; all cohorts, listed as compound of formula (I)): no grade 3 or grade 4 adverse events | DLT (Dose Limiting Toxicity) [1, 5]: without any DLT | hemolytic anemia [1, 5]: No hemolytic anemia was reported in any subject; also recorded: no hemolytic anemia in any of the tested subjects | tolerability of treatment ([1]; all subjects, across dose levels 25-400 mg BID oral, up to 4 cycles of 28 days): well tolerated | hemolytic anemia ([1]; all subjects, across dose levels 25-400 mg BID oral, listed as compound of formula (I)): no hemolytic anemia in any of the tested subjects | safe and tolerable total daily dose ([1]; oral, total daily dose): ≤ 800 mg | safe and tolerable dose ([1]; per oral BID): ≤ 400 mg | Serious Adverse Reactions (SAR's) or Suspected Unexpected Serious Adverse Reactions (SUSAR's) ([1]; reporting period): No Serious Adverse Reactions (SAR's) or Suspected Unexpected Serious Adverse Reactions (SUSAR's) were reported | dose reductions due to treatment-related AEs ([1]; reporting period): no dose reductions | IL12p40, TNFα, MCP-1, MIP-1α, MIP-1β and MCP-3 levels [2]: a trend towards upregulation | IL-6 and IL-1α levels [2]: a trend towards downregulation

Nc1ncn([C@@H]2O[C@H](CO)[C@@H](O)[C@H]2O)c(=O)n1 [Azacitidine, 4-Amino-1-β-D-ribofuranosyl-s-triazin-2(1H)-one]
increase in phagocytosis of HL-60 cells (HL-60 cells; 3 μM azacitidine treatment of HL-60 cells alone): 71.26% | % Normalized phagocytosis Replicate 1 (HL-60 cells; [6]): 76.25% | % Normalized phagocytosis Replicate 2 (HL-60 cells; [6]): 66.28%
